According to US10626148B2, “Glycopeptides conjugates and uses thereof” (priority 2015, dated 2020):
pIC50: −log10 of the molar value.

Columns and labels:
[1] = system: Vancomycin intermediate resistant S. aureus; assay: MIC, micro-dilution broth, VISA; assay type: cell-based; conditions: Staphylococcus aureus
Procedure: Test compounds were assayed in a micro-dilution broth format. Stock solutions were made by serially diluting the compounds using autoclaved millipore water or broth media. The antibacterial activity of the compounds was determined against gram positive bactreia like methicillin-resistant S. aureus (MRSA), vancomycin-intermediate-resistant S. aureus (VISA), vancomycin-sensitive E. faecium (VSE), vancomycin-resistant E. faecalis and vancomycin-resistant E. faecium (VRE). Antibacterial activity of dipicolyl-vancomycin conjugate conjugate (4) in combination with meropemem was determined against gram-negative bacteria such as K. pneumoniae ATCC BAA2146, clinical isolates K. pneumoniae R3949, K. pneumoniae R3934, E. coli R3336 and A. baumanii R676. Bacteria, to be tested, were grown for about 10 h in the suitable media, MRSA, VISA and gram negative bacteria were grown in Yeast-dextrose broth (about 1 g of beef extract, about 2 g of yeast extract, about 5 g of peptone and about 5 g of NaCl in about 1000 mL of sterile distilled water (pH-7)). For solid media, about 5% agar was used along with above mentioned composition. VSE and VRE were cultured in Brain Heart Infusion broth (Himedia). The bacterial samples were freeze dried and stored at −80° C. About 5 μL of these stocks were added to about 3 mL of the nutrient broth or Brain Heart Infusion broth and the culture was grown for about 6 h at about 37° C. prior to the experiments. This 6 h grown culture gives about 10^9 cfu/mL and this was determined by spread plating method. The 6 h grown culture was diluted to give effective cell concentration of about 10^5 cfu/mL which was then used for determining MIC. Compounds were serially diluted, in sterile water (2-fold dilution is employed) in a way that the working concentration was about 10 μM for MRSA, and VSE while for VRE, VISA and gram negative bacteria; it was about 100 μM. About 50 μL of these serial dilutions were added to the wells of 96 well plate followed by the addition of about 150 μL of bacterial solution. The plates were then incubated at about 37° C., 150 rpm in the incubator and O.D at 620 nm was recorded at an interval of about 24 h using TECAN (Infinite series, M200 pro) Plate Reader. Each concentration had triplicate values and the whole experiment was done at least twice and the MIC value was determined by taking the average of triplicate O.D. values for each concentration and plotting it against concentration. The data was then subjected to sigmoidal fitting.

[2] = system: meropenem-resistant NDM-1 K. pneumoniae R3934; assay: Sepsis infection model in mice; assay type: in vivo; conditions: CD-1 mice, i.p., 1 h and 24 h post-infection
Procedure: Sepsis infection model: About six-week-old, female CD-1 mice (weight, ˜19-24 g) were used for the experiments. Mice were infected intraperitoneally (i.p.) with a dose of ˜10^6 CFU/mouse of meropenem-resistant NDM-1 K. pneumoniae R3934. Then, mice were treated twice at 1 h and 24 h post-infection with a specified i.p. dose of either saline, meropenem (10 mg/kg), compound 4 (10 mg/kg), or a combination of compound 4 (10 mg/kg) and meropenem (10 mg/kg). Here, colistin (5 mg/kg) was used as a positive control. Mice were euthanized after 48 h post-infection and then liver, spleen, kidney and lungs were collected to find out the bacterial density in these organs. Organs were placed into 10 ml sterile saline on ice, and then homogenized. The dilutions of the homogenate were plated onto agar plates, which were incubated for 24 h at 37° C. The bacterial titer was expressed as log10 CFU/g of organ weight.

[3] = target: T1, NDM-1 enzyme (Klebsiella pneumoniae, UniProt C7C422); assay: NDM-1 enzyme inhibition, nitrocefin substrate; assay type: biochemical
T1 construct: made in house; host or cells: E. coli BL21 (DE3)
T1 sequence (C7C422 29-270, looked up, species assumed): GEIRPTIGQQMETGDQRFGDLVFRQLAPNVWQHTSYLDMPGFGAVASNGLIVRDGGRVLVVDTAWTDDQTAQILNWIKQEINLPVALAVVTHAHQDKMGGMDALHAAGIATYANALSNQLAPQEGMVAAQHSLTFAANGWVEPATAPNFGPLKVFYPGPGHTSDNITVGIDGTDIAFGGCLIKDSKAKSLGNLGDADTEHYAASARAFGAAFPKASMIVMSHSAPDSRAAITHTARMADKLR
Procedure: The NDM-1 was produced by E. coli BL21 (DE3) carrying pET30a-NDM-1 in LB medium. Initially, the purified NDM-1 enzyme (5 nM, HEPES buffer, pH-7.4) was supplemented with 20 μM ZnSO4 for 30 min. Next, the enzyme was pre-incubated with the inhibitor (compound 4) for 20 min prior to the initiation of the assay by the addition of the substrate (Nitrocefin, 30 μM). Assays were read in 96-well microplate format at 490 nm (absorbance) using TECAN plate reader (Infinite Pro.) at 37° C. IC50s were deduced from a plot of percent loss of activity versus inhibitor concentration.

[4] = system: VRE; assay: Cell wall biosynthesis inhibition, UDPMurNAc-pp accumulation; assay type: cell-based
Procedure: In order to investigate whether the new installed properties of vancomycin derivative on inhibition of cell wall (peptidoglycan) biosynthesis against VRE, the accumulation of UDP-linked peptidoglycan precursor, UDP-N-acetyl-muramyl-pentadepsipeptide (UDPMurNAc-pp) was determined after treating the bacteria (VRE) with test compounds. Analysis of the cytoplasmic peptidoglycan nucleotide precursor pool was examined using VRE cells grown in 25 mL MHB. Cells were grown to an A600 nm (OD600) of 0.6 and incubated with 130 μg/mL of chloramphenicol for 15 min. Then, test compounds vancomycin (5 μM), compound 4 and physical mixture of compound 4 with zinc sulphate (5 μM) were added and incubated for another 60 min. Cells were collected and washed with sterile water to remove the antimicrobial agents and then extracted with boiling water. The cell extract was then centrifuged and the supernatant lyophilized. Then, the lyophilized powder was dissolved in 2 mL of water and pH was adjusted to 2.0 with 20% phosphoric acid. Now, the UDP-linked cell wall precursors in the solution were analyzed by RP-HPLC monitoring the UV absorbance peak at 260 nm wavelength and confirmed by HR-MS mass spectrometry.

With `CN[C@H](CC(C)C)C(=O)N[C@H]1C(=O)N[C@@H](CC(N)=O)C(=O)N[C@H]2C(=O)N[C@H]3C(=O)N[C@H](C(=O)N[C@H](C(=O)NCCCCCCN(Cc4ccccn4)Cc4ccccn4)c4cc(O)cc(O)c4-c4cc3ccc4O)[C@H](O)c3ccc(c(Cl)c3)Oc3cc2cc(c3O[C@H]2OC(CO)[C@H](O)C(O)C2O[C@H]2CC(C)(N)[C@H](O)C(C)O2)Oc2ccc(cc2Cl)[C@H]1O` (stereo partly shown) [Compound 4, Dipicolyl-vancomycin conjugate] as the molecule, how does the MIC [1] read?
Its MIC is 0.4 µM.

What about the “in-vivo antibacterial activity, bacterial titer in organs” value ([2]; 10 mg/kg alone) of the same molecule?
Its value is “did not show any activity”.

What about the “in-vivo antibacterial activity, bacterial titer in organs” value ([2]; compound 4 (10 mg/kg) in combination with meropenem (10 mg/kg)) of the same molecule?
The value was “excellent antibacterial activity”.

What about the pIC50 [3] of the same molecule?
Its pIC50 is ~5.22.

And the “effect on the activity of NDM-1” value ([3]; nitrocefin as substrate)?
Its value is “potent in-vitro dose-dependent inhibition”.

What about the “cell wall biosynthesis inhibition (accumulation of UDPMurNAc-pp, peak at 260 nm)” value ([4]; 60 min) of the same molecule?
Its value is “greater cell wall biosynthesis inhibition compared to vancomycin”.

And the “cell wall biosynthesis inhibition (accumulation of UDPMurNAc-pp)” value ([4]; in presence of Zn2+ (zinc sulphate 5 μM))?
The value was “enhanced cell wall biosynthesis inhibition”.
